Measurements as given in ChEMBL document CHEMBL1201862, “PubChem BioAssay data set” (2004).
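Exposure lasted 48 hours, with cells grown in 96-well plates and compounds tested at five concentrations. GI50 is the concentration that inhibits growth by half.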 Active and inactive are the calls of the source. No stated cut-off is given here; in the data, active = GI50 up to about 1.1 µM and inactive = higher.

Experiments:
Test in all cases: inhibition of tumour cell growth, NCI panel, 48 h
SN12C = tested on: SN12C
SF-539 = tested on: SF-539
PC-3 = tested on: PC-3
UO-31 = tested on: UO-31
MDA-N = tested on: MDA-N
CCRF-CEM = tested on: CCRF-CEM
K562 = tested on: K562
SK-MEL-2 = tested on: SK-MEL-2
ACHN = tested on: ACHN
OVCAR-3 = tested on: OVCAR-3
HOP-62 = tested on: HOP-62
LOX IMVI = tested on: LOX IMVI
SK-MEL-28 = tested on: SK-MEL-28
UACC-62 = tested on: UACC-62
EKVX = tested on: EKVX
A498 = tested on: A498
MCF7 = tested on: MCF7
OVCAR-4 = tested on: OVCAR-4
MOLT-4 = tested on: MOLT-4
NCI-H522 = tested on: NCI-H522

Measured: GI50

Cn1c(-c2ccccc2)cc(-c2ccc3c(c2)OCO3)c1-c1ccsc1
inactive: SN12C > 100 µM | SF-539 > 100 µM | PC-3 > 100 µM | UO-31 > 100 µM | MDA-N > 100 µM | CCRF-CEM > 100 µM | K562 > 100 µM | SK-MEL-2 > 100 µM | ACHN > 100 µM | OVCAR-3 > 100 µM | HOP-62 > 100 µM | LOX IMVI > 100 µM | SK-MEL-28 > 100 µM | UACC-62 > 100 µM | EKVX > 100 µM | A498 > 100 µM | MCF7 > 100 µM | OVCAR-4 > 100 µM | MOLT-4 > 100 µM

O=C1CC(=O)N(C2CCCCC2)C(=O)N1c1ccccc1S(=O)(=O)Oc1ccccc1
inactive: SN12C > 100 µM | SF-539 > 100 µM | PC-3 > 100 µM | UO-31 18.1 µM | MDA-N > 100 µM | CCRF-CEM 14.9 µM | K562 26.9 µM | SK-MEL-2 > 100 µM | ACHN 19.1 µM | OVCAR-3 > 100 µM | HOP-62 33 µM | LOX IMVI 2.59 µM | SK-MEL-28 > 100 µM | UACC-62 > 100 µM | EKVX > 100 µM | A498 > 100 µM | MCF7 > 100 µM | OVCAR-4 > 100 µM | MOLT-4 19.2 µM

COC(=O)C1=C(O)C(C(=O)OC)[C@]2(O)[C@H](C(=O)OC)[C@H]1C[C@@H](c1ccc(Cl)cc1)[C@H]2C(=O)OC (stereo not given in full)
inactive: SN12C 5.16 µM | SF-539 4.22 µM | PC-3 4.65 µM | UO-31 8.97 µM | MDA-N 3.78 µM | CCRF-CEM 2.3 µM | K562 4.27 µM | SK-MEL-2 1.79 µM | ACHN 7.45 µM | OVCAR-3 2.94 µM | HOP-62 7.67 µM | LOX IMVI 10.7 µM | SK-MEL-28 9.06 µM | UACC-62 7.69 µM | EKVX 10.9 µM | A498 11.7 µM | MCF7 4.07 µM | OVCAR-4 11.1 µM | MOLT-4 3.64 µM

Fc1sc2c(c1F)C1CCC2C1 (stereo not given)
inactive: SN12C > 100 µM | SF-539 > 100 µM | PC-3 75.7 µM | UO-31 54 µM | MDA-N 63.4 µM | SK-MEL-2 > 100 µM | ACHN > 100 µM | NCI-H522 > 100 µM | OVCAR-3 41.9 µM | HOP-62 > 100 µM | LOX IMVI 42.5 µM | SK-MEL-28 > 100 µM | UACC-62 51.8 µM | EKVX > 100 µM | A498 > 100 µM | MCF7 > 100 µM | OVCAR-4 > 100 µM | MOLT-4 34.6 µM
